Like-named read-outs stand apart in the source and are kept apart here.
What was measured:
NIH-3T3 cells = assay: Intracellular H2O2-eliminating activity (CM-H2DCF-DA fluorescence); type: cell-based; settings: Mus musculus, NIH3T3, glucose oxidase, concentration at 50% reduction of intracellular H2O2
Experimental: The activity of test compounds in present invention to eliminate intracellular H2O2 was measured as follows. NIH-3T3 cells (ATCC) were seeded in a 35-mm culture dish at 2×10^5 cells/well. After culture for 24 hours, cells were serum-starved with phenol red free-basal DMEM containing 0.5% FBS for 6 h. Starved NIH 3T3 cells were pretreated with compounds diluted with phenol red free-basal DMEM at concentrations ([…]) for 30 min, followed by treatment with 20 mU of glucose oxidase (Gox) for 30 min. A reactive oxygen species-sensitive fluorescence dye, carboxymethyl-dichlorofluorescein-diacetate (CM-H2DCF-DA), which was prepared in 1 mM DMSO stock and diluted 500 times in phenol red free-basal DMEM, was added to the cells and incubated for 5 min. Then, cells were quickly rinsed with basal medium. Images were taken at excitation 497 nm/emission 518 nm settings using a fluorescence microscope. Three images at 10× magnification per sample were obtained, and fluorescence intensities from 30 or more individual cells per image were averaged.
The intracellular H2O2-eliminating activity of test compounds in present invention was measured using a live-cell imaging fluorescence probe (CM-HaDCF-DA). H2O2-eliminating activity was measured depending on ascending concentrations of the test compound and expressed as the percent of activity compared to the untreated control group. EC50 represents the concentration of test compound at 50% reduction of intracellular H2O2.

[1] = tested on: Tyr 857 phosphorylation of PDGF receptor-β (PDGFRβ) in HASMC; assay: Immunoblot of PDGF-mediated signaling in PrxII knock-down HASMC; type: cell-based, human; settings: HASMC depleted of PrxII expression, FIG. 2
Experimental: (§1) Cells were quickly washed in ice-cold phosphate-buffered saline (PBS) and lysed in extraction buffer containing 20 mM Hepes (pH 7.0), 1% Triton X-100, 150 mM NaCl, 10% glycerol, 1 mM EDTA, 2 mM EGTA, and 1 mM DTT, 5 mM Na3VO4, 5 mM NaF, 1 mM AEBSF, aprotinin (5 μg/mL), and leupeptin (5 μg/mL). After cen-trifugation at 12,000×g, the clarified cell extracts were used for immunoblotting. For re-blotting, the immunoblots were retrieved in a solution of 67 mM Tris (pH 6.7), 2% SDS, and 100 mM 2-mercaptoethanol at 60° C. for 30 min to remove antibodies and rinsed three times with a Tris-buffered saline (TBS) solution containing 1% Triton X-100. The retrieved membranes were subjected to new immunoblotting.
In human aortic smooth muscle cell (HASMC) and human pulmonary artery smooth muscle cell (PASMC) in which PrxII was knocked out by transfecting the PrxII siRNA, the ability of test compounds to replace the cellular function of PrxII was evaluated. That is, the efficacy of the new compounds was verified in terms of signaling pathways induced by PDGF that regulates the growth and migration of vascular smooth muscle cells in the aorta and pulmonary artery. Activation of PDGF-induced signaling pathway was analyzed by an immunoblot method using an antibody that specifically recognizes phosphorylation of Tyr 857, which is a major phosphorylation site on PDGF receptor (PDGFRβ).

[2] = Measurement of redox potential (DTT redox buffers, HPLC); type: physicochemical; settings: DTT(Red)/DTT(Ox) redox buffers, 3 h, 30° C., 50% reduction of test compound
Experimental: A test compound (10 mM) was diluted 20-fold with each redox buffer solution and incubated for 3 h in a 30° C. water bath. Then, compounds were analyzed by HPLC. The area of peaks corresponding to the oxidized and reduced forms of test compound based on specific retention time was calculated and plotted as percent of total peak area against the Nernst equation value (mV) at x-axis. The Nernst equation value corresponding to 50% reduction of test compound was set as the midpoint redox potential value for test compound.
The redox potential values of the test compounds were analyzed based on the potential values established in redox buffer solutions where reduced and oxidized DTT are mixed at various ratios.

[3] = tested on: Tyr 1175 phosphorylation of VEGF receptor-2 (VEGFR2) in HAEC; assay: Immunoblot of VEGF-mediated signaling in PrxII knock-down HAEC; type: cell-based, human; settings: HAECs depleted of PrxII expression, FIG. 5
Experimental: as §1
In human aortic endothelial cell (HAEC) and human pulmonary artery endothelial cell (PAEC) in which PrxII was knocked out by transfecting the PrxII siRNA, the ability of test compounds to replace the cellular function of PrxII was evaluated. That is, the efficacy of the new compounds was verified in terms of signaling pathways induced by VEGF that regulates the growth and migration of vascular endothelial cells in the aorta and pulmonary artery. Activation of VEGF-induced signaling pathway was analyzed by an immunoblot method using an antibody that specifically recognizes phosphorylation of Tyr 1175, which is a major phosphorylation site on VEGF receptor-2 (VEGFR2).

in vitro [4] = assay: in vitro
Experimental: Cytotoxicity tests were performed against vascular endothelial cells, vascular smooth muscle cells and hepatocytes. After treatment with ascending concentrations of each compound, the concentration of test compound corresponding to 50% cell viability (CC50) was measured.

[5] = tested on: yeast thioredoxin (Trx)/yeast Trx reductase (TR); assay: Peroxidase activity assay (H2O2 reduction, NADPH oxidation); type: biochemical; settings: 50 μM test compound, 3 μM yeast Trx, 1.5 μM yeast TR, 250 μM NADPH, 1.2 mM H2O2, 30° C.; NADPH oxidized per minute
Experimental: Hydrogen peroxide (H2O2)-reducing peroxidase activity of compounds in present invention was performed as follows. Peroxyredoxin activity was measured in reaction mixture (200 μL volume) containing 50 mM HEPES buffer (pH 7.0), 1 mM EDTA, 250 μM NADPH, 3 μM yeast thioredoxin (Trx), 1.5 μM yeast Trx reductase (TR), 50 μM test compound, and 1.2 mM H2O2.
Reaction was initiated by adding H2O2 and the decrease in absorbance at 340 nm was measured using Agilent UV8453 spectrophotometry (Hewlett Packard, USA) at 30° C. for 12 min. Initial reaction rate is the amount of NADPH oxidized per minute calculated from slope of the linear part of curve.
The H2O2-reducing peroxidase activity of the test compounds in present invention was measured in a reaction mixture containing thioredoxin (Trx)/thioredoxin reductase (TR), respectively.

in vitro [6] = settings: human
Experimental: For cytotoxicity analysis, human aortic endothelial cells (HAEC) and smooth muscle cells (HASMC) were seeded in a 96-well culture plate at density of 4000 cells/well in a final volume of 100 μL. Cells were cultured for 24 h and serum-starved for an additional 18 h. Test compounds were serially diluted with EBM-2 culture medium, added to the plate at 100 μL/well, and further incubated for 24 h. The number of viable cells was measured using the WST-1 cell viability assay kit (Roche Diagnostics, USA). Cell number was expressed as absorbance values at 450 nm after subtracting the turbidity value at 600 nm. The absorbance values from three replicate wells were averaged.
After treatment with ascending concentrations of each compound, the concentration of test compound corresponding to 50% cell viability (CC50) was measured.

[7] = tested on: human aortic smooth muscle cell (HASMC); assay: PDGF-induced proliferation assay, HASMC (PrxII siRNA); type: cell-based; settings: for Degree of HASMC proliferation: PDGF-BB 25 ng/mL, percent of untreated control
Experimental: (§2) HASMCs and PASMCs were transfected with a PrxII-specific siRNA using RNAi MAX transfection reagent according to manufacturer's protocol. After 24 hours, transfected cells (3,000 cells/well) were seeded in a 96-well culture plate. At 12 h after seeding, cells were serum-starved for additional 18 h in SmBM basal medium containing 0.5% FBS. Test compounds were serially diluted with the same basal medium containing 0.5% FBS, added to the cells ([…]), and incubated for 2 h. After treatment, cells were placed in fresh SmBM medium containing 0.5% FBS and PDGF-BB (25 ng/mL) for growth factor stimulation and further cultured for 24 h.
(§3) The degree of cell proliferation was measured using the Cell Titer-GLO kit ([…]). Data are the percent of luminescence intensity averaged from three replicate wells versus that of untreated control group.
(§4) In human aortic smooth muscle cell (HASMC) and human pulmonary artery smooth muscle cell (PASMC) in which PrxII was knocked out by transfecting the PrxII siRNA, the ability of test compounds to inhibit the PDGF-induced proliferation of vascular smooth muscle cells was evaluated. In Table 6, the degree of proliferation in the compound-treated groups is expressed as percent of the degree of proliferation in untreated control group. The concentrations of test compounds corresponding to 50% growth inhibition (IC50) is also listed.

[8] = tested on: human pulmonary artery smooth muscle cell (PASMC); assay: PDGF-induced proliferation assay, PASMC (PrxII siRNA); type: cell-based; settings: for Degree of PASMC proliferation: PDGF-BB 25 ng/mL, percent of untreated control
Experimental: as §2, §3, §4

[9] = tested on: human aortic endothelial cell (HAEC); assay: VEGF-induced proliferation assay, HAEC (PrxII siRNA); type: cell-based; settings: for Degree of HAEC proliferation: VEGF-A 25 ng/mL, percent of untreated control
Experimental: as §2, with “HAECs” for “HASMCs”, “PAECs” for “PASMCs”, “EBM” for “SmBM”, “VEGF-A” for “PDGF-BB”
as §3
In human aortic endothelial cell (HAEC) and human pulmonary artery endothelial cell (PAEC) in which PrxII was knocked out by transfecting the PrxII siRNA, the ability of test compounds to augment the VEGF-induced proliferation of vascular endothelial cells was evaluated. In Table 7, the degree of proliferation in the compound-treated groups is expressed as percent of the degree of proliferation in untreated control group. The effective concentrations of test compounds increasing cell proliferation by 50% (EC50) is also listed.

Structure (SMILES) | EC50 (NIH-3T3 cells) [nM] | Effect on phosphorylation of Tyr 857 on PDGFR [1] | Midpoint redox potential (E m) [2] [mV] | Effect on phosphorylation of Tyr 1175 on VEGFR2 [3] | CC50 (in vitro [4]) [nM] | Peroxidase activity for H2O2 reduction [5] [nmol/min] | CC50 (in vitro [6]) [nM] | other results
CN1C(=O)C2CSSC1(C)C(=O)N2Cc1ccccc1 (centres unmarked) [Compound 2, 6-benzyl-1,8-dimethyl-2,3-dithia-6,8-diazabicyclo[3.2.2]nonane-7,9-dione] | 6.47 | strongly abolish the phosphorylation | −293.19 | strongly abolish the phosphorylation | > 500000 | 5.05 |  | 
CN1C(=O)C2CSSC1(C)C(=O)N2Cc1ccccn1 (centres unmarked) [Compound 6, 1,8-dimethyl-6-(pyridin-2-ylmethyl)-2,3-dithia-6,8-diazabicyclo[3.2.2]nonan-7,9-dione] | 5.99 | strongly abolish the phosphorylation | −290.39 | strongly abolish the phosphorylation | 341000 | 4.57 |  | 
Cc1cccc(CN2C(=O)C3(C)SSCC2C(=O)N3C)n1 (centres unmarked) [Compound 12, 1,8-dimethyl-6-((6-methylpyridin-2-yl)methyl)-2,3-dithia-6,8-diazabicyclo[3.2.2]nonane-7,9-dione] |  |  |  |  | > 500000 | 4.94 | > 500000 | 
CN1C(=O)C2CSSC1(C)C(=O)N2Cc1cnn(C)c1 (centres unmarked) [Compound 13, 1,8-dimethyl-6-((1-methyl-1H-pyrazol-4-yl)methyl)-2,3-dithia-6,8-diazabicyclo[3.2.2]nonane-7,9-dione] |  |  |  |  | > 500000 | 4.78 | > 500000 | 
CN1CCN2C(=O)C3CSSC2(C1)C(=O)N3Cc1ccccc1 (centres unmarked) [Compound 21, 12-benzyl-9-methylhexahydro-5H-4,10a-(epiminomethano)pyrazino[2,1-c][1,2,4]dithi azepine-5,11-dione] |  | strongly abolish the phosphorylation | −272.86 | strongly abolish the phosphorylation |  | 8.38 |  | Degree of HASMC proliferation ([7]; 2.5 nM): 88.1%; Degree of HASMC proliferation ([7]; 5 nM): 63.9%; Degree of HASMC proliferation ([7]; 10 nM): 27.2%; Degree of HASMC proliferation ([7]; 25 nM): 4.0%; IC50 ([7]; Homo sapiens, HASMC, 50% growth inhibition, PDGF-stimulated): 6.41 nM; Degree of PASMC proliferation ([8]; 2.5 nM): 69.9%; Degree of PASMC proliferation ([8]; 5 nM): 49.6%; Degree of PASMC proliferation ([8]; 10 nM): 18.7%; Degree of PASMC proliferation ([8]; 25 nM): 6.0%; Degree of PASMC proliferation ([8]; 50 nM): 7.1%; Degree of PASMC proliferation ([8]; 100 nM): 0.0%; IC50 ([8]; Homo sapiens, PASMC, 50% growth inhibition, PDGF-stimulated): 4.51 nM; Degree of HAEC proliferation ([9]; 2.5 nM): 105.0%; Degree of HAEC proliferation ([9]; 5 nM): 122.7%; Degree of HAEC proliferation ([9]; 10 nM): 154.6%; Degree of HAEC proliferation ([9]; 25 nM): 190.1%; Degree of HAEC proliferation ([9]; 50 nM): 202.0%; Degree of HAEC proliferation ([9]; 100 nM): 141.2%; EC50 ([9]; Homo sapiens, Endothelial cell, effective concentration increasing cell proliferation by 50%, VEGF-stimulated): 9.96 nM
C=CCN1C(=O)C2SSC1C(=O)N2CC=C [Control compound (A5), reference compound] | 15.2 |  |  |  | 62300 | 4.25 |  | 
